Values after ≈ are worked out from the molar mass of the structure shown. Where two headings read alike, the source gives them in different places.

Assay in all cases: In vitro antibacterial activity, microtitration dilution method (MIC)
Format in all cases: cell-based

In experiment [1] the test system is Streptococcus faecalis MGH-2. As to conditions: Enterococcus faecalis. The text has this: (§1) Agents & Chemoth., 6, 124 (1974), which is incorporated herein by reference.
Experiment [2] concerns Staphylococcus aureus UC-76.
Source text: as §1

Experiment [3] concerns Staphylococcus aureus H 228.
Source text: as §1

Another experiment has as its system Proteus rettgeri M 1771. The following applies: Providencia rettgeri, M1771, read-out: Minimal Inhibitory Concentration (MIC). From the text: (§2) The compounds of the invention display antibacterial activity when tested by the microtitration dilution method as described in Heifetz, et al, Antimicr. Agents & Chemoth., 6, 124 (1974), which is incorporated herein by reference.
(§3) By use of the above referenced method, the followed minimum inhibitory concentration values (MICs in μg/ml) were obtained for representative compounds of the invention.

The test system of experiment [4] is Enterobacter cloacae MA 2646. As to conditions: MA2646, read-out: Minimal Inhibitory Concentration (MIC).
Source text: as §2, §3

The test system of a further experiment is Escherichia coli Vogel. The following applies: read-out: Minimal Inhibitory Concentration (MIC).
Source text: as §2, §3

Experiment [5] has as its system Klebsiella pneumoniae MGH-2. The following applies: MGH2, read-out: Minimal Inhibitory Concentration (MIC).
Source text: as §2, §3

Experiment [6] concerns Streptococcus pyogenes C-203. As to conditions: C203, read-out: Minimal Inhibitory Concentration (MIC).
Source text: as §2, §3

The test system of experiment [7] is Pseudomonas aeruginosa UI-18. The following applies: UI18, read-out: Minimal Inhibitory Concentration (MIC).
Source text: as §2, §3

For experiment [8], the system named is Streptococcus pneumoniae SV-1. As to conditions: SV1, read-out: Minimal Inhibitory Concentration (MIC).
Source text: as §2, §3

The mark [9] stands for this setting: MGH2, Streptococcus faecalis MGH-2, read-out: Minimal Inhibitory Concentration (MIC).
Setting [10] is: Staphylococcus aureus, UC76, read-out: Minimal Inhibitory Concentration (MIC).
The mark [11] stands for this setting: H228, Staphylococcus aureus H 228, read-out: Minimal Inhibitory Concentration (MIC).

As for `CCNCC1CCN(c2cc3c(cc2F)c(=O)c(C(=O)O)cn3NC)C1` (stereo not shown) [Ex. 1, 7-[3-[(Ethylamino)methyl]-1-pyrrolidinyl]-6-fluoro-1-methylamino-1,4-dihydro-4-oxo-3-quinolinecarboxylic Acid], the MIC in experiment [1] (setting [9]) turned out to be 6.3 µg/mL (≈ 17.4 µM); in experiment [2] (setting [10]), 0.2 µg/mL (≈ 0.552 µM); in [3] (setting [11]), 12.5 µg/mL (≈ 34.5 µM); in the experiment on Proteus rettgeri M 1771, 25 µg/mL (≈ 69 µM); in experiment [4], 6.3 µg/mL (≈ 17.4 µM); with Escherichia coli Vogel, 12.5 µg/mL (≈ 34.5 µM). Besides, the MIC was determined as 6.3 µg/mL (≈ 17.4 µM) in [5], 0.4 µg/mL (≈ 1.1 µM) in experiment [6], 25 µg/mL (≈ 69 µM) in [7] and 3.1 µg/mL (≈ 8.55 µM) in experiment [8].
As to `CNn1cc(C(=O)O)c(=O)c2cc(F)c(N3CCC(N)C3)c(F)c21` (stereo not shown) [Ex. 2, 7-(3-Amino-1-pyrrolidinyl)-6,8-difluoro-1,4-dihydro-1-methylamino-4-oxo-3-quinolinecarboxylic Acid], the MIC worked out at 12.5 µg/mL (≈ 36.9 µM) in experiment [1] (setting [9]); 0.4 µg/mL (≈ 1.18 µM) in [2] (UC76, Staphylococcus aureus UC-76, read-out: Minimal Inhibitory Concentration (MIC)); 3.1 µg/mL (≈ 9.16 µM) in experiment [3] (Staphylococcus aureus, H228, read-out: Minimal Inhibitory Concentration (MIC)); 0.4 µg/mL (≈ 1.18 µM) in the experiment on Proteus rettgeri M 1771; 0.8 µg/mL (≈ 2.36 µM) in [4]; 0.2 µg/mL (≈ 0.591 µM) with Escherichia coli Vogel. Also, the MIC in [5] stood at 0.2 µg/mL (≈ 0.591 µM); in [6] it was 0.8 µg/mL (≈ 2.36 µM); in experiment [7], 0.2 µg/mL (≈ 0.591 µM); in experiment [8], 6.3 µg/mL (≈ 18.6 µM).
For `CCNCC1CCN(c2c(F)cc3c(=O)c(C(=O)O)cn(NC)c3c2F)C1` (stereo not shown) [Ex. 3, 7-[3-[(Ethylamino)methyl]-1-pyrrolidinyl]-6,8-difluoro-1,4-dihydro-1-methylamino-4-oxo-3-quinolinecarboxylic acid], the MIC in experiment [1] (setting [9]) was found to be 0.4 µg/mL (≈ 1.05 µM); in experiment [2] (setting [10]), 0.2 µg/mL (≈ 0.526 µM); in experiment [3] (setting [11]), 0.4 µg/mL (≈ 1.05 µM); in the experiment with Proteus rettgeri M 1771 it was 1.6 µg/mL (≈ 4.21 µM); in experiment [4] it was 0.2 µg/mL (≈ 0.526 µM); with Escherichia coli Vogel, 0.2 µg/mL (≈ 0.526 µM). Besides, the MIC in experiment [5] is 0.2 µg/mL (≈ 0.526 µM); in experiment [6], 0.2 µg/mL (≈ 0.526 µM); in [7], 0.8 µg/mL (≈ 2.1 µM); in experiment [8], 0.1 µg/mL (≈ 0.263 µM).
Regarding `CNn1cc(C(=O)O)c(=O)c2cc(F)c(N3CCC(CN)C3)c(F)c21` (stereo not shown) [Ex. 4, 7-[3-(Aminomethyl)-1-pyrrolidinyl]-6,8-difluoro-1,4-dihydro-1-methylamino-4-oxo-3-quinolinecarboxylic acid], the MIC in experiment [1] (MGH2, read-out: Minimal Inhibitory Concentration (MIC)) came out at 0.8 µg/mL (≈ 2.27 µM); in experiment [2] (setting [10]) it was 0.2 µg/mL (≈ 0.568 µM); in experiment [3] (setting [11]), 1.6 µg/mL (≈ 4.54 µM); in the experiment with Proteus rettgeri M 1771, 1.6 µg/mL (≈ 4.54 µM); in experiment [4] it was 1.6 µg/mL (≈ 4.54 µM); with Escherichia coli Vogel, 1.6 µg/mL (≈ 4.54 µM). Further, the MIC worked out at 1.6 µg/mL (≈ 4.54 µM) in experiment [5], 0.2 µg/mL (≈ 0.568 µM) in [6], 1.6 µg/mL (≈ 4.54 µM) in experiment [7] and 0.8 µg/mL (≈ 2.27 µM) in experiment [8].

For the origin of these results see US4604401A, “Antibacterial agents III” (Warner-Lambert Company, priority 1984, dated 1986).
